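Step 1: Grow cells in 96-well plates. Step 2: Expose to compound for 48 hours at 5 concentrations. Step 3: Interpolate endpoints linearly; if unreached, use highest concentration. At the GI50, growth is halved.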 Activity calls are given as the source filed them. Rule as the data show it: active = GI50 up to about 1.1 µM and inactive = higher.
Columns and labels:
Test in all cases: NCI anticancer screen, dose series, 48 h
786-0 = test system: 786-0
A549 = test system: A549
ACHN = test system: ACHN
BT-549 = test system: BT-549
EKVX = test system: EKVX
HCT-15 = test system: HCT-15
HL-60 = test system: HL-60
IGROV-1 = test system: IGROV-1
M14 = test system: M14
OVCAR-3 = test system: OVCAR-3
SF-539 = test system: SF-539
SK-MEL-28 = test system: SK-MEL-28
SK-MEL-5 = test system: SK-MEL-5
SK-OV-3 = test system: SK-OV-3
SR = test system: SR
U-251 = test system: U-251

Row | Compound | GI50 (786-0) | GI50 (A549) | GI50 (ACHN) | GI50 (BT-549) | GI50 (EKVX) | GI50 (HCT-15) [µM] | GI50 (HL-60) | GI50 (IGROV-1) | GI50 (M14) | GI50 (OVCAR-3) | GI50 (SF-539) | GI50 (SK-MEL-28) | GI50 (SK-MEL-5) | GI50 (SK-OV-3) | GI50 (SR) | GI50 (U-251)
1 | CC1(C)C/C(=N/O)c2c(nc3ccc4ccccc4c3c2-c2ccc(Cl)cc2)C1 | 3.79 µM (inactive) | 19.4 µM (inactive) | 6.79 µM (inactive) | 10.6 µM (inactive) | 15.7 µM (inactive) | 16.4 | 9.14 µM (inactive) | 14.9 µM (inactive) | 33.5 µM (inactive) | 12.3 µM (inactive) | 16.6 µM (inactive) | 31.3 µM (inactive) | 37.2 µM (inactive) | 15 µM (inactive) | 4.75 µM (inactive) | 11.5 µM (inactive)
2 | CC1CCCC(C(O)CC2CC(=O)NC(=O)C2)C1O (configuration not stated) | > 100 µM (inactive) | > 100 µM (inactive) | > 100 µM (inactive) | > 100 µM (inactive) | > 100 µM (inactive) | > 100 | > 100 µM (inactive) | > 100 µM (inactive) | > 100 µM (inactive) | > 100 µM (inactive) | > 100 µM (inactive) | > 100 µM (inactive) | > 100 µM (inactive) | > 100 µM (inactive) | > 100 µM (inactive) | > 100 µM (inactive)
3 | COc1ccc(/N=N/c2ccc3oc(=O)c(C(=O)Nc4ccc(OC)cc4)cc3c2)cc1 | 14.1 µM (inactive) | 31.4 µM (inactive) | 18.2 µM (inactive) | 4.93 µM (inactive) | 28.5 µM (inactive) | 6.79 | 5.69 µM (inactive) | 16.1 µM (inactive) | 16.9 µM (inactive) | 19.2 µM (inactive) | 6.95 µM (inactive) | 15.6 µM (inactive) | 14.9 µM (inactive) | 19.5 µM (inactive) | 12 µM (inactive) | 13.4 µM (inactive)
4 | CN1C2CCC1CC(CC(=O)NC(c1ccc(F)cc1)c1ccc(F)cc1)C2 (configuration not stated) | 64.7 µM (inactive) | > 100 µM (inactive) | > 100 µM (inactive) | > 100 µM (inactive) | > 100 µM (inactive) | > 100 | 0.242 µM (active) | > 100 µM (inactive) | 18 µM (inactive) | > 100 µM (inactive) | 70 µM (inactive) | 22.5 µM (inactive) | 20.8 µM (inactive) | > 100 µM (inactive) | 30.2 µM (inactive) | > 100 µM (inactive)
5 | COc1ccc2nc3ccc(OC)cc3c([S+]([O-])Cc3ccc([N+](=O)[O-])cc3)c2c1 (configuration not stated) | 2.1 µM (inactive) | 25.8 µM (inactive) | 5.52 µM (inactive) | 18.7 µM (inactive) | 16.6 µM (inactive) | 3.19 | 1.75 µM (inactive) | 5.3 µM (inactive) | 7.87 µM (inactive) | 5.47 µM (inactive) | 2.81 µM (inactive) | 5.97 µM (inactive) | 16.7 µM (inactive) | 21.1 µM (inactive) | 8.18 µM (inactive) | 10.9 µM (inactive)
6 | Cc1ccccc1C(=O)N1CCc2c([nH]c3ccccc23)C1 | 22.9 µM (inactive) | 35.9 µM (inactive) | 34.9 µM (inactive) | 18.7 µM (inactive) | 24.9 µM (inactive) | 21.3 | 17.5 µM (inactive) | 25.7 µM (inactive) | 19.4 µM (inactive) | 27.5 µM (inactive) | 21.5 µM (inactive) | 28.9 µM (inactive) | 15.9 µM (inactive) | 32.4 µM (inactive) | 13.7 µM (inactive) | 18 µM (inactive)
7 | COc1ccc(CCCCNCc2cccc(CNCCCCc3ccc(OC)cc3)c2)cc1 | 2.1 µM (inactive) | 2.15 µM (inactive) | 1.83 µM (inactive) | 1.81 µM (inactive) | 1.81 µM (inactive) | 1.77 | 1.77 µM (inactive) | 1.74 µM (inactive) | 1.69 µM (inactive) | 1.88 µM (inactive) | 1.96 µM (inactive) | 1.84 µM (inactive) | 1.66 µM (inactive) | 2.08 µM (inactive) | 1.79 µM (inactive) | 1.85 µM (inactive)
